Reference: patent US4036979A, “Compositions containing 4,5,6,7-tetrahydrobenz[b]thien-4-yl-ureas or derivatives and methods of enhancing growth rate” (American Cyanamid Company, priority 1976, dated 1977)

experiment: Mouse Growth Regulant Tests (12-day weight gain over controls, compound in diet); format: in vivo, CFI female mice; conditions: Mus musculus, feed or water, 288 h, Table IX; 400 ppm in diet
Method: CFI female mice from Carworth Farms are received when they are six weeks old. They are housed ten to a cage in air-conditioned rooms (72° F. to 76° F.) with automatically controlled lights, 14 hours on and 10 hours off. The basal diet used in these studies is Purina Laboratory Chow (see description below), which is supplied ad libitum. Water is also allowed ad libitum.
Thirteen days after arrival, the mice are weighed in groups of ten and assigned at random to the different treatments. Twelve days later the mice are weighed again and the experiment terminated. At least three cages (30 mice) of untreated controls are included in each test. Test data are provided in Tables VI, VII, VIII, and IX below wherein data are reported as percent weight gain over controls. Unless otherwise indicated in these tables, all compounds tested were dl-racemic mixtures. The following is a description of the diet to which the growth promoting compounds were added.

Row | Compound | change in vivo at 400 ppm
1 | NC(=O)NC1CCCC(=O)c2sccc21 (centres unmarked) [5,6,7,8-tetrahydro-4H-8-oxocyclohepta[b]thien-4-ylurea] | 68.8%

same assay, conditions: Mus musculus, feed or water, 288 h, Table VI; 50 ppm in diet

Row | Compound | change in vivo at 50 ppm
2 | CNC(=O)NC1CCCc2sccc21 (centres unmarked) [Table VI: O,H,H,H,H,CH3, 1-methyl-3-(4,5,6,7-tetrahydrobenzo[b]thien-4-yl)urea] | 61.8%

same assay, conditions: Mus musculus, feed or water, 288 h, Table VI; 200 ppm in diet

Row | Compound | change in vivo at 200 ppm
3 | CCCCNC(=O)NC1CCCc2sccc21 (centres unmarked) [Table VI: O,H,H,H,H,n-butyl] | 25%

same assay, conditions: Mus musculus, feed or water, 288 h, Table VI; 400 ppm in diet

Row | Compound | change in vivo at 400 ppm
4 | CN(C)NC(=O)NC1CCCc2sccc21 (centres unmarked) [Table VI: O,H,H,H,H,N(CH3)2] | 3%
5 | CC(C)N(O)C(=O)NC1CCCc2sccc21 (centres unmarked) [Table VI: O,H,H,H,CH(CH3)2,OH] | 32%
6 | NC(=O)NC1CCCc2sc(Br)cc21 (centres unmarked) [Table VI: O,Br,H,H,H,H, 2-bromo-4,5,6,7-tetrahydrobenzo[b]-thien-4-ylurea] | 76.3%
7 | CC(=O)NC(=O)NC1CCCc2sccc21 (centres unmarked) | -1.4%
8 | O=C(NOc1ccccc1)NC1CCCc2sccc21 (centres unmarked) | 90.6%
9 | O=C(NCCO)NC1CCCc2sccc21 (centres unmarked) [Table VI: O,H,H,H,H,CH2CH2OH] | 3%
10 | CON(C)C(=O)NC1CCCc2sccc21 (centres unmarked) [Table VI: O,H,H,H,CH3,OCH3, 1-methoxy-1-methyl-3-(4,5,6,7-tetrahydrobenzo[b]thien-4-yl)urea] | 107%
11 | NC(=O)NC1CCCc2sc(Cl)cc21 (centres unmarked) [Table VI: O,Cl,H,H,H,H, 2-chloro-4,5,6,7-tetrahydrobenzo[b]thien-4-ylurea] | 4.8%
12 | CCCCCCNC(=O)NC1CCCc2scc(C)c21 (centres unmarked) [Table VI: O,H,CH3,H,H,n-hexyl] | 21%
13 | O=C(NCCc1ccccc1)NC1CCCc2sccc21 (centres unmarked) [Table VI: O,H,H,H,H,CH2CH2C6H5, 1-phenethyl-3-(4,5,6,7-tetrahydrobenzo[b]thien-4-yl)urea] | 72.3%
14 | O=C(NCc1ccccc1)NC1CCCc2sccc21 (centres unmarked) [Table VI: O,H,H,H,H,CH2C6H5, 1-benzyl-3-(4,5,6,7-tetrahydrobenzo[b]thien-4-yl)urea] | 32.4%
15 | CCNC(=S)NC1CCCc2sccc21 (centres unmarked) [Table VI: S,H,H,H,H,C2H5, 1-ethyl-3-(4,5,6,7-tetrahydrobenzo[b]thien-4-yl)thiourea] | 54.6%
16 | COc1ccc(NC(=O)NC2CCCc3sccc32)cc1 (centres unmarked) | 78%
17 | COc1ccc(N2CCN(C(=O)NC3CCCc4sccc43)CC2)cc1 (centres unmarked) | 24%
18 | COc1ccc(OC)c(NC(=O)NC2CCCc3sccc32)c1 (centres unmarked) | 32.4%
19 | NC(=S)NC1CCCc2sccc21 (centres unmarked) [Table VI: S,H,H,H,H,H, 4,5,6,7-tetrahydrobenzo[b]thien-4-yl thiourea] | 11%
20 | COC(=O)NNC(=O)NC1CCCc2sccc21 (centres unmarked) [Table VI: O,H,H,H,H,NHCO2CH3] | 18%
21 | C#CCN(Cc1ccccc1)C(=O)NC1CCCc2sccc21 (centres unmarked) [Table VI: O,H,H,H,CH2C6H5,CH2CCH] | 30%
22 | O=C(NC1CC1)NC1CCCc2sccc21 (centres unmarked) | 31%
23 | CCOc1ccc(NC(=O)NC2CCCc3sccc32)cc1 (centres unmarked) | 8%
24 | O=C(NC1CCCc2sccc21)NC1CCCc2sccc21 (centres unmarked) | 43%
25 | O=C(NC1CCCc2sccc21)N1CCNCC1 (centres unmarked) | 3%

Row | Compound | change in vivo at 400 ppm
26 | COC(CNC(=O)NC1CCCc2sccc21)OC (centres unmarked) [Table VI: O,H,H,H,H,CH2CH(OCH3)2] | 22%
27 | O=C(NC1CCCc2sccc21)N1CCc2ccccc2C1 (centres unmarked) | 7%
28 | CN(C(N)=O)C1CCCc2sccc21 (centres unmarked) [Table VI: O,H,H,CH3,H, 1-methyl-1-(4,5,6,7-tetrahydrobenzo[b]-thien-4-yl)urea] | 27.2%
29 | C#CCN(CC#C)C(=O)NC1CCCc2sccc21 (centres unmarked) [Table VI: O,H,H,H,CH2CCH,CH2CCH] | 27%
30 | C#CCNC(=O)NC1CCCc2sccc21 (centres unmarked) [Table VI: O,H,H,H,H,CH2CCH] | 82%
31 | O=C(NC1CCCc2ccccc21)NC1CCCc2sccc21 (centres unmarked) | 4%
32 | O=C(Nc1ccc([N+](=O)[O-])cc1)NC1CCCc2sccc21 (centres unmarked) | 9%
33 | O=C(NCc1ccncc1)NC1CCCc2sccc21 (centres unmarked) | 46%
34 | C=CCNC(=O)NC1CCCc2sccc21 (centres unmarked) [Table VI: O,H,H,H,H,CH2CHCH2] | 48.4%
35 | C=CCNC(=S)NC1CCCc2sccc21 (centres unmarked) [Table VI: S,H,H,H,H,CH2CHCH] | 60%
36 | CNC(=O)NC1CCCc2sccc21 (centres unmarked) [Table VI: O,H,H,H,H,CH3, 1-methyl-3-(4,5,6,7-tetrahydrobenzo[b]thien-4-yl)urea] | 134%
37 | CCCCCCNC(=O)NC1CCCc2sccc21 (centres unmarked) [Table VI: O,H,H,H,H,n-hexyl, 1-(n-hexyl)-3-(4,5,6,7-tetrahydrobenzo[b]thien-4-yl)urea] | 14.5%
38 | O=C(O)CONC(=O)NC1CCCc2sccc21 (centres unmarked) [Table VI: O,H,H,H,H,OCH2CO2H] | 63.3%
39 | CCCCCCONC(=O)NC1CCCc2sccc21 (centres unmarked) [Table VI: O,H,H,H,H,On-C6H13] | 29%
40 | CON(C)C(=S)NC1CCCc2sccc21 (centres unmarked) [Table VI: S,H,H,H,CH3,OCH3] | 66%
41 | O=C(NCNC(=O)NC1CCCc2sccc21)NC1CCCc2sccc21 (centres unmarked) | 29%
42 | N#CCNC(=O)NC1CCCc2sccc21 (centres unmarked) [Table VI: O,H,H,H,H,CH2CN] | 12%
43 | NC(=O)NC1CCCc2sccc21 (single isomer, unassigned; (-)) [Table VI: O,H,H,H,H,H (levorotatory enantiomorph), (-)-4,5,6,7-tetrahydrobenzo[b]-thien-4-ylurea] | 122%
44 | O=C(NC1CCCc2sccc21)N(O)C1CCCCC1 (centres unmarked) | 19%
45 | C#CCN(C)C(=O)NC1CCCc2sccc21 (centres unmarked) [Table VI: O,H,H,H,CH3,CH2CCH] | 29%
46 | C[n+]1cccc(CNC(=O)NC2CCCc3sccc32)c1 (centres unmarked) | 6%
47 | CCCCOc1ccc(NC(=O)NC2CCCc3sccc32)cc1 (centres unmarked) | 9%

same assay, conditions: Mus musculus, feed or water, 288 h, Table VII; 25 ppm in diet

Row | Compound | change in vivo at 25 ppm
48 | NC(=O)NC1CCC(=O)c2sccc21 (single isomer, unassigned; (-)) [Table VII: O,H,H (levorotatory enantiomorph), (-)-4,5,6,7-tetrahydro-7-oxobenzo[b]thien-4-ylurea] | 119%

same assay, conditions: Mus musculus, feed or water, 288 h, Table VII; 200 ppm in diet

Row | Compound | change in vivo at 200 ppm
49 | NC(=O)NC1CCC(=O)c2sccc21 (single isomer, unassigned; (+)) [Table VII: O,H,H (dextrorotatory enantiomorph), (+)-4,5,6,7-tetrahydro-7-oxobenzo[b]thien-4-ylurea] | 9.4%
50 | CN(C)C(=O)NC1CCC(=O)c2sccc21 (centres unmarked) [Table VII: O,CH3,CH3, 1,1-dimethyl-3-(4,5,6,7-tetrahydro-7-oxobenzo[b]thien-4-yl)urea] | 58.6%
51 | CN(O)C(=O)NC1CCC(=O)c2sccc21 (centres unmarked) [Table VII: O,CH3,OH] | 31.3%
52 | CC(C)NC(=O)NC1CCC(=O)c2sccc21 (centres unmarked) [Table VII: O,H,iso-C3H7] | 84%
53 | CONC(=O)NC1CCC(=O)c2sccc21 (centres unmarked) [Table VII: O,H,OCH3] | 71%

same assay, conditions: Mus musculus, feed or water, 288 h, Table VII; 400 ppm in diet

Row | Compound | change in vivo at 400 ppm
54 | CCCCCCCCNC(=O)NC1CCC(=O)c2sccc21 (centres unmarked) [Table VII: O,H,n-C8H17] | 83.4%
55 | O=C(NC(=O)C(Cl)(Cl)Cl)NC1CCC(=O)c2sccc21 (centres unmarked) | 62.2%
56 | CCCCCCCCCCCCCCNC(=O)NC1CCC(=O)c2sccc21 (centres unmarked) [Table VII: O,H,n-C14H29] | 9.7%
57 | CNC(=O)NC1CCC(=O)c2sccc21 (centres unmarked) [Table VII: O,H,CH3, 1-methyl-3-(4,5,6,7-tetrahydro-7-oxobenzo[b]thien-4-yl)urea] | 64.8%

same assay, conditions: Mus musculus, feed or water, 288 h, Table VIII; 50 ppm in diet

Row | Compound | change in vivo at 50 ppm
58 | NC(=O)NC1CCC(O)c2sccc21 (single isomer, unassigned; (+)) [Table VIII: O,H,H (dextrorotatory diastereomer, 95% isomer B), (+)-4,5,6,7-tetrahydro-7-hydroxybenzo[b]thien-4-ylurea] | -11.3%

same assay, conditions: Mus musculus, feed or water, 288 h, Table VIII; 400 ppm in diet

Row | Compound | change in vivo at 400 ppm
59 | CONC(=O)NC1CCC(O)c2sccc21 (centres unmarked) [Table VIII: O,H,OCH3, 1-methoxy-3-(7-hydroxy-4,5,6,7-tetrahydrobenzo[b]thien-4-yl)urea] | 66.7%
60 | COCNC(=O)NC1CCC(O)c2sccc21 (centres unmarked) [Table VIII: O,H,CH2OCH3, 1-(methoxymethyl)-3-(4,5,6,7-tetrahydro-7-hydroxybenzo[b]thien-4-yl)urea] | 124%
61 | CNC(=S)NC1CCC(O)c2sccc21 (centres unmarked) [Table VIII: S,H,CH3] | 85.1%
62 | CN(C)C(=O)NC1CCC(O)c2sccc21 (centres unmarked) [Table VIII: O,CH3,CH3, 1,1-dimethyl-3-(7-hydroxy-4,5,6,7-tetrahydrobenzo[b]thien-4-yl)urea] | 81.5%
63 | CNC(=O)NC1CCC(O)c2sccc21 (centres unmarked) [Table VIII: O,H,CH3, 1-methyl-3-(7-hyroxy-4,5,6,7-tetrahydrobenzo[b]thien-4-yl)urea] | 60.2%

same assay, conditions: Table VIII; 25 ppm in diet

Row | Compound | & Weight Gain Over Controls
64 | NC(=O)NC1CCC(O)c2sccc21 (single isomer, unassigned; (-)) [Table VIII: O,H,H (levorotatory diastereomer, 86% isomer A)] | 54.4%
65 | NC(=O)NC1CCC(O)c2sccc21 (single isomer, unassigned; (+)) [Table VIII: O,H,H (dextrorotatory diastereomer, 90% isomer A), (+)-4,5,6,7-tetrahydro-7-hydroxybenzo[b]thien-4-ylurea] | 3.7%
